Laboratory results published in patent US20220339135A1, “COMPOSITIONS AND METHODS FOR MODULATING AN INFLAMMATORY RESPONSE” (Enzychem Lifesciences Corporation, priority 2019, published 2022).
“Also recorded” adds a separate entry of the source.

Experiments:
CXCL8 in THP-1 cells = assay: MSU crystal-induced CXCL8 in CD36 silenced THP-1 cells, ELISA; format: cell-based, human; conditions: PLAG 10, 100 μg/ml
Description: The specific siRNA of CD36 (sc-29995) and control siRNA (sc-37007) were purchased from Santa Cruz Biotechnology. Cells were transfected with 50 nM of either the targeting or control siRNA using HiPerFect Transfection Reagent (Qiagen, Hilden, Germany) for 24 h. The knockdown efficiency of siRNAs was confirmed by Western blot analysis.
Transfected THP-1 cells were pre-incubated with PLAG (10, 100 μg/ml) for 1 hour and then stimulated with MSU crystal (400 μg/ml). After 24 hours, cells were centrifuged, and the supernatant was harvested. The concentrations of CXCL8 in the supernatant of THP-1 cells were measured using Human CXCL8 ELISA kit (BD bioscience, New Jersey, USA) according to the manufacturer's instructions. The cytokine levels were estimated by interpolation from a standard curve using an ELISA reader (Molecular Devices, Sunnyvale, USA) at 450 nm.

[1] = tested on: chemo-radiation and scratch induced oral mucositis; assay: Chemo-radiation and scratch induced oral mucositis; format: in vivo, mice; conditions: PLAG 250 mg/kg oral, n=7
Description: For radiation therapy, mice received 1 Gy of gamma radiation with mice whole body. Mice were intraperitoneally administered 5-FU (Sigma Aldrich) at 50 mg/kg. For facilitating the risk of infection, mice were anesthetized with 2,2,2-tribromoethanol (150 mg/kg, Sigma Aldrich) by intraperitoneal injection, and then tongue was scratched 0.2 cm wound on a third of side at using the tip of an 18-gauge needle with an equal force and depth. PLAG (Enzychem Lifesciences) was stored in −80° C. refrigerator and was administered orally once with 250 mg/kg. Formulations were aggressively mixed to be cloudiness and were injected within 10 minutes.
The tongue was scratched 0.2 cm wound on a third of side at using the tip of an 18-gauge needle with an equal force and depth on Day 0, 7, 10, and 16. Mice were received 1 Gy of gamma radiation on Day 2 and 5-FU was administered intraperitoneally in a dose of 50 mg/kg on Days 4. For the group receiving PLAG, 250 mg/kg of PLAG was administered orally once daily. To check the oral mucositis, mice were anesthetized with 2,2,2-tribromoethanol (150 mg/kg, Sigma Aldrich) by intraperitoneal injection on Day 7, 10, 14, 18. Each group contained seven mice.

[2] = tested on: RIPK1, RIPK3, MLKL in THP-1 cells; assay: MSU-induced phosphorylation of RIPK1, RIPK3, MLKL, western blot; format: cell-based, human
Description: (A) THP-1 cells were pre-incubated with PLAG (100 μg/mL) for an hour and then stimulated with MSU crystal (400 μg/mL). After 0, 7, 15, 30, 60 minutes, cells were harvested. (B) THP-1 cells were pre-incubated with PLAG (1, 10, 100 μg/mL) for 1 hour and then stimulated with MSU crystal (400 μg/mL). After 1 h, cells were harvested. THP-1 cells were lysis with 1×RIPA lysis buffer containing the protease inhibitor (Roche, Basel, Switzerland) and phosphatase inhibitor (Thermo Scientific, MA, USA) on ice for 30 min. The cell lysates were clarified by centrifugation (13,000 rpm, 4° C., 30 min), and the protein quantity from each sample was examined by Bradford assay (Bio-Rad). Proteins from each sample were separated by sodium dodecyl sulfate-polyacrylamide gel electrophoresis on 12% polyacrylamide gels and the proteins were blotted onto a PVDF membrane (Millipore Corporation, Germany). The membrane was blocked with 5% non-fat dried milk (BD bioscience) in PBS containing 0.05% Tween-20 (Calbiochem) for 1 hour. The membrane was incubated with anti-phospho-RIPK3 (abcam), RIPK3 (novusbio), p-MLKL (abcam), MLKL (Sigma), p-RIP (Cell Signaling Technology), RIPK1 (R&D System) and β-actin (Cell Signaling Technology) at 4° C. overnight. […] Target proteins were detected with Immobilon Western Chemiluminescent HRP Substrate (Millipore Corporation).

[3] = tested on: PAK in LPL or GPIHBP-1 silenced cells; assay: In vitro phagocytosis assay in LPL or GPIHBP-1 silenced cells; format: cell-based; conditions: 1 h after infection
Description: For immunofluorescence-based measurement of phagocytosis and clearance, BMDMs were grown on glass coverslips in 24-well plates. The cells were infected with PAK (MOI, 50) for different time intervals and then were treated with 10 μg/ml gentamycin for 30 minutes to remove extracellular PAK attached to the cell surface. The infected cells were washed with ice-cold PBS several times, followed by fixing for 10 minutes at room temperature in methanol or 10% paraformaldehyde. The cells were stained with anti-Pseudomonas antibody (Abcam) and then were incubated with goat anti-rabbit IgG secondary antibody conjugated with Alexa Fluor 488. […]
For measurement of phagocytosis by flow cytometry, PAK was heat-killed and stained with 10 μM of SYTO9 (Thermo Scientific™) at room temperature for 30 minutes and then was extensively washed with ice-cold PBS several times. The staining dose of PAK was determined by flow cytometry. […] The fluorescence of extracellular PAK attached to the cell surface was quenched by replacing the medium with PBS containing 0.2% trypan blue.
For CFU counting-based phagocytosis and bacterial killing assay, PAK was cultured at 37° C. overnight with continuous shaking and was resuspended in PBS. […] The diluted aliquots were spread on LB agar plates, and CFU was counted after incubation of the plates overnight at 37° C.

[4] = tested on: MIP-2 and IFN-β in LPS treated macrophage cells; assay: MIP-2 and IFN-β in LPS treated macrophage cells; format: cell-based
[5] = tested on: NET formation of neutrophil, BALF derived cells; assay: NETosis of PAK-introduced BALF derived cells; format: cell-based, mice; conditions: PAK/PLAG vs PAK
Description: 2 hours after PAK infection, BALF derived cells were harvested and detected extracellular DNA-elastase complex by using ELISA and visualized by using confocal microscopy (×400) or scanning electron microscope (SEM) (×8000). […] were washed with PBS and mounted in DAPI-containing fluorescence microscopy mounting medium (Invitrogen). Samples were analyzed with a laser scanning confocal microscope (Carl Zeiss, Oberkochen, Germany).

CCCCC/C=C\C/C=C\CCCCCCCC(=O)OC(COC(C)=O)COC(=O)CCCCCCCCCCCCCCC (racemic) [PLAG, 1-palmitoyl-2-linoleoyl-3-acetylglycerol]
decrease of CXCL8 induced by MSU crystal (CXCL8 in THP-1 cells): still shown
survival rate after 18 days [1]: 85%
MSU-induced phosphorylation of RIPK3 and MLKL ([2]; PLAG 100 μg/mL, time course): accelerated
MSU-induced phosphorylation of RIPK1 and RIPK3 ([2]; PLAG 1, 10, 100 μg/mL, dose-dependent): modulated
PLAG effect on enhanced bacterial phagocytosis in silenced cells [3]: enhances neither phagocytosis nor bacterial killing; also recorded: abrogated
modulation of chemokine MIP-2 in silenced cell ([4]; LPL or GPIHBP1 silenced cell): not capable of modulating
chemokine MIP-2 and cytokine IFN-β ([4]; LPS treated macrophage cells): effectively down-regulates
NET formation of neutrophil [5]: accelerated
